The supplement of paper PMC10733146

Experiments:
Assay in all cases: viability relative to DMSO control (fraction); higher = less drug effect (more viable cells)
Conditions in all cases: 48 h
[1] = test system: primary AML patient cells (S072)
Method in brief: (§1)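 Using 384-well plates with compounds already plated at five concentrations, one well per concentration, 4 × 10^4 primary mononuclear tumour cells were added per well. Cells were Ficoll-isolated from blood or bone marrow or came from processed lymph node, fresh or cryopreserved. They were kept for 48 h at 37 °C and 5% CO2 in RPMI-1640 supplemented with penicillin/streptomycin, L-glutamine and human serum, and viability was read as CellTiter-Glo luminescence relative to the median of 16 inner DMSO wells.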

[2] = test system: primary CLL patient cells (S031)
Method in brief: as §1

[3] = test system: primary MCL patient cells (S053)
Method in brief: as §1

[4] = test system: primary AML patient cells (S085)
Method in brief: as §1

[5] = test system: primary CLL patient cells (S043)
Method in brief: as §1

[6] = test system: primary ALL patient cells (S048)
Method in brief: as §1

[7] = test system: primary BL patient cells (S005)
Method in brief: as §1

[8] = test system: primary AML patient cells (S091)
Method in brief: as §1

[9] = test system: primary AML patient cells (S079)
Method in brief: as §1

[10] = test system: primary AML patient cells (S019)
Method in brief: as §1

[11] = test system: primary AML patient cells (S037)
Method in brief: as §1

[12] = test system: primary MCL patient cells (S068)
Method in brief: as §1

[13] = test system: primary FL patient cells (S022)
Method in brief: as §1

[14] = test system: primary AML patient cells (S071)
Method in brief: as §1

[15] = test system: primary AML patient cells (S089)
Method in brief: as §1

[16] = test system: primary AML patient cells (S017)
Method in brief: as §1

[17] = test system: primary AML patient cells (S012)
Method in brief: as §1

[18] = test system: primary AML patient cells (S002)
Method in brief: as §1

[19] = test system: primary AML patient cells (S025)
Method in brief: as §1

[20] = test system: primary AML patient cells (S056)
Method in brief: as §1

## Nc1nc(=S)c2[nH]cnc2[nH]1 [Thioguanin]
[1]; 0.024 µM
  viability: 1.02
[1]; 0.12 µM
  viability: 1.01
[1]; 0.6 µM
  viability: 0.768
[1]; 3 µM
  viability: 0.538
[1]; 15 µM
  viability: 0.387
[2]; 0.024 µM
  viability: 1.07
[2]; 0.12 µM
  viability: 0.972
[2]; 0.6 µM
  viability: 0.801
[2]; 3 µM
  viability: 0.613
[2]; 15 µM
  viability: 0.327
[3]; 0.024 µM
  viability: 0.893
[3]; 0.12 µM
  viability: 0.699
[3]; 0.6 µM
  viability: 0.45
[3]; 3 µM
  viability: 0.25
[3]; 15 µM
  viability: 0.173
[4]; 0.024 µM
  viability: 1.03
[4]; 0.12 µM
  viability: 1
[4]; 0.6 µM
  viability: 0.714
[4]; 3 µM
  viability: 0.402
[4]; 15 µM
  viability: 0.24
[5]; 0.024 µM
  viability: 0.884
[5]; 0.12 µM
  viability: 0.798
[5]; 0.6 µM
  viability: 0.685
[5]; 3 µM
  viability: 0.546
[5]; 15 µM
  viability: 0.338
[6]; 0.024 µM
  viability: 0.949
[6]; 0.12 µM
  viability: 0.906
[6]; 0.6 µM
  viability: 0.664
[6]; 3 µM
  viability: 0.37
[6]; 15 µM
  viability: 0.17
[7]; 0.024 µM
  viability: 0.938
[7]; 0.12 µM
  viability: 0.665
[7]; 0.6 µM
  viability: 0.823
[7]; 3 µM
  viability: 0.673
[7]; 15 µM
  viability: 0.261
[8]; 0.024 µM
  viability: 0.859
[8]; 0.12 µM
  viability: 0.817
[8]; 0.6 µM
  viability: 0.919
[8]; 3 µM
  viability: 0.6
[8]; 15 µM
  viability: 0.254
[9]; 0.024 µM
  viability: 1.02
[9]; 0.12 µM
  viability: 0.821
[9]; 0.6 µM
  viability: 0.575
[9]; 3 µM
  viability: 0.453
[9]; 15 µM
  viability: 0.254
[10]; 0.024 µM
  viability: 1.04
[10]; 0.12 µM
  viability: 1.18
[10]; 0.6 µM
  viability: 0.65
[10]; 3 µM
  viability: 0.497
[10]; 15 µM
  viability: 0.57
[11]; 0.024 µM
  viability: 1
[11]; 0.12 µM
  viability: 0.937
[11]; 0.6 µM
  viability: 0.701
[11]; 3 µM
  viability: 0.481
[11]; 15 µM
  viability: 0.395
[12]; 0.024 µM
  viability: 0.982
[12]; 0.12 µM
  viability: 0.892
[12]; 0.6 µM
  viability: 0.83
[12]; 3 µM
  viability: 0.6
[12]; 15 µM
  viability: 0.299
[13]; 0.024 µM
  viability: 0.991
[13]; 0.12 µM
  viability: 0.955
[13]; 0.6 µM
  viability: 0.835
[13]; 3 µM
  viability: 0.622
[13]; 15 µM
  viability: 0.483
[14]; 0.024 µM
  viability: 1.02
[14]; 0.12 µM
  viability: 0.879
[14]; 0.6 µM
  viability: 0.577
[14]; 3 µM
  viability: 0.403
[14]; 15 µM
  viability: 0.228
[15]; 0.024 µM
  viability: 0.765
[15]; 0.12 µM
  viability: 0.607
[15]; 0.6 µM
  viability: 0.648
[15]; 3 µM
  viability: 0.313
[15]; 15 µM
  viability: 0.0421
[16]; 0.024 µM
  viability: 0.97
[16]; 0.12 µM
  viability: 1.05
[16]; 0.6 µM
  viability: 0.785
[16]; 3 µM
  viability: 0.561
[16]; 15 µM
  viability: 0.38
[17]; 0.024 µM
  viability: 0.99
[17]; 0.12 µM
  viability: 1
[17]; 0.6 µM
  viability: 0.946
[17]; 3 µM
  viability: 0.751
[17]; 15 µM
  viability: 0.513
[18]; 0.024 µM
  viability: 1.1
[18]; 0.12 µM
  viability: 1.09
[18]; 0.6 µM
  viability: 0.949
[18]; 3 µM
  viability: 0.66
[18]; 15 µM
  viability: 0.446
[19]; 0.024 µM
  viability: 0.945
[19]; 0.12 µM
  viability: 0.751
[19]; 0.6 µM
  viability: 0.615
[19]; 3 µM
  viability: 0.279
[19]; 15 µM
  viability: 0.152
[20]; 0.024 µM
  viability: 0.912
[20]; 0.12 µM
  viability: 0.897
[20]; 0.6 µM
  viability: 0.889
[20]; 3 µM
  viability: 0.339
[20]; 15 µM
  viability: 0.127
